This note sets out measurements from patent publication US5081284A, “Proteinase inhibitor” (Suntory Limited, priority 1989, dated 1992).

Molecules are shown by their SMILES. Where two headings read alike, the source gives them in different places.

The target in one experiment is T1, calpain I (Homo sapiens, UniProt P07384).
T1 sequence (P07384 1-714): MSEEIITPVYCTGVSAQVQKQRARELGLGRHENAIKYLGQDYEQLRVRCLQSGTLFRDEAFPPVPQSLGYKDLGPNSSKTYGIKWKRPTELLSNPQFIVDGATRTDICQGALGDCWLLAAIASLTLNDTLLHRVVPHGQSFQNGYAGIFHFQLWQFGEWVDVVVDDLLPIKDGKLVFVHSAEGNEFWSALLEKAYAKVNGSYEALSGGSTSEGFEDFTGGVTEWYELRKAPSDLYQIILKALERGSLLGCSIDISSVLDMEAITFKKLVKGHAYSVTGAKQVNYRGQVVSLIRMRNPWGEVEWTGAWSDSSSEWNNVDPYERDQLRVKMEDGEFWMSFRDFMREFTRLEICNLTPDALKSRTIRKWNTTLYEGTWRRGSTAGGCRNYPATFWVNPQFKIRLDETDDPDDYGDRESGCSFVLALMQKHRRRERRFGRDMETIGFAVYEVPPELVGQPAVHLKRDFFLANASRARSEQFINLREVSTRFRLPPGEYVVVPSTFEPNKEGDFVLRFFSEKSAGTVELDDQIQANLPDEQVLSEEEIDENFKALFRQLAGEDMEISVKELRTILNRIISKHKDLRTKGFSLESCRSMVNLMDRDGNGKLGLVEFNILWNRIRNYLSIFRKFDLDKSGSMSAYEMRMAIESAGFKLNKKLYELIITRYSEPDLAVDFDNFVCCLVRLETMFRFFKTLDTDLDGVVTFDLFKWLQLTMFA
T1 sequence (P04632 1-268 partner): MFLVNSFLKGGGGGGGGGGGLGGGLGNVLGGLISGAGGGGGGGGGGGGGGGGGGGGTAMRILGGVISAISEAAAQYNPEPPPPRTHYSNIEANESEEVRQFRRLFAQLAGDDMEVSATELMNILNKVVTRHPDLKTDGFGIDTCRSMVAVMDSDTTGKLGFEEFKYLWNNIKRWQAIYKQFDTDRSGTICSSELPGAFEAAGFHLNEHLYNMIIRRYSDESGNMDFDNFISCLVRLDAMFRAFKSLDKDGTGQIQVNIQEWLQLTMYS
In words: Anti-calpain activity, calpain I (casein hydrolysis, Ross-Schatz method). In kind it is biochemical.

For another experiment, the target named is cathepsin B (Bos taurus, UniProt P07688). In words: Anti-cathepsin activity (cathepsin B, benzyloxycarbonyl-L-lysine-p-nitrophenyl ester substrate). In kind it is biochemical, bovine. Here is the method:
A mixture of a test compound of the present invention and an acetate buffer solution (25 mM, pH=5.1, with 1 mM EDTA, 3.15 ml) containing a substrate (benzyloxycarbonyl-L-lysine-p-nitrophenyl ester, 0.114 mg) was preincubated at 30° C. for 1 minute. To the mixture, a solution (0.05 ml) of cathepsin B (derived from bovine spleen; product of Sigma; 0.05 units) in the acetate buffer was added to start the reaction. Immediately after the start of reaction, the change in absorbance at 326 nm was measured and the inhibitory activity of the test compound was determined by comparison with the control solution.

Another experiment addresses T2, calpain II (Homo sapiens, UniProt P17655).
T2 sequence (P17655 1-700): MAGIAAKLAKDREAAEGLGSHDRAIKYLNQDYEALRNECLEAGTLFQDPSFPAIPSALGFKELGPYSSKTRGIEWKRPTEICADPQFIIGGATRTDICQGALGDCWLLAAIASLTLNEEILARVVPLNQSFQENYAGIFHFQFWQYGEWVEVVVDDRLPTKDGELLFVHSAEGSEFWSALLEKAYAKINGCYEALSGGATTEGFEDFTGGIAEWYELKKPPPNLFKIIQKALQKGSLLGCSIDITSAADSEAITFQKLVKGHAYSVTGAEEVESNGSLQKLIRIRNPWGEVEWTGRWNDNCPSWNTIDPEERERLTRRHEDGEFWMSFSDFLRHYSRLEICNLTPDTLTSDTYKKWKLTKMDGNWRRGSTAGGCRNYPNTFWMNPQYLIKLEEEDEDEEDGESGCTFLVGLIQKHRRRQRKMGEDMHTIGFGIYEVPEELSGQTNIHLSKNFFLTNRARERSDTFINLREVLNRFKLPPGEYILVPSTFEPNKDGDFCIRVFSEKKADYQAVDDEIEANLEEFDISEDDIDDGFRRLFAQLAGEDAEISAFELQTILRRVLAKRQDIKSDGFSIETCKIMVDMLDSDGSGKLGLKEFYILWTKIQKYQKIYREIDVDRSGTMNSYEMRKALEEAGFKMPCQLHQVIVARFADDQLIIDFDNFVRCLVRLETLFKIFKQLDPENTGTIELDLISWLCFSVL
T2 sequence (P04632 1-268 partner): T1 sequence (P04632 1-268 partner)
In words: Anti-calpain activity, calpain II (casein hydrolysis, Ross-Schatz method). Format: biochemical.

For the next experiment, the target named is T3, papain (Carica papaya, UniProt P00784).
T3 sequence (P00784 134-345): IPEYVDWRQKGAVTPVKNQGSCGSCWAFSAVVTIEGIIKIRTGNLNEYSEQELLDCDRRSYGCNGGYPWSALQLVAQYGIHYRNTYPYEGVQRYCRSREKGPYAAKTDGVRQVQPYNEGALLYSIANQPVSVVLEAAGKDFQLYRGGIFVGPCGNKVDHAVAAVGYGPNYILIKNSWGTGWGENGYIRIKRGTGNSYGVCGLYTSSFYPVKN
In words: Anti-papain activity (casein hydrolysis, Lowry-Folin method). Format: biochemical. Here is the method: (§1) A mixture of a test compound of the present invention, papain (0.015 units) and a citrate buffer solution (20 mM, pH=6.2,1 ml) containing EDTA (0.88 mg) was preincubated at 30° C. for 5 minutes and a substrate solution (1 ml) was added to start the reaction. The substrate was a 1% solution of casein in the citrate buffer. The reaction was performed at 30° C. for 20 minutes. The reaction was quenched by adding 6.5% trichloroacetic acid (3 ml) to the reaction solution. The amount of casein that had been hydrolyzed enzymatically in the trichloroacetic acid soluble fraction was measured by the Lowry-Folin method and the inhibitory activity of the test compound was determined by comparison with the control solution.
as §1, with “pH=6.2, 1” for “pH=6.2,1”

[1] abbreviates: Table 6 (Example 29), pH 7.5, 30° C., 30 minutes, casein, read-out: Inhibitory activity toward calpain I, IC50.
[2] abbreviates: Table 8 (Example 29), pH 5.1, 30° C., from bovine spleen, read-out: Inhibitory activity toward cathepsin B, IC50.
Setting [3] is: Table 7 (Example 29), pH 7.5, 30° C., 30 minutes, casein, read-out: Inhibitory activity toward calpain II, IC50.
Setting [4] is: Table 5 (Example 29), pH 6.2, 30° C., 20 minutes, casein, read-out: Inhibitory activity toward papain, IC50.

In the case of `CCCC[C@@H](C=O)NC(=O)[C@H](CC(C)C)NC(=O)OCc1ccc(OC)cc1` [Example 7, N-(p-methoxybenzyloxycarbonyl)-L-leucyl-L-norleucinal], the IC50 on calpain I (setting [1]) amounted to 100 nM; on cathepsin B (setting [2]) it was 150 nM; at calpain II (setting [3]), 130 nM; on papain (setting [4]), 250 nM.
Turning to `CCCC[C@@H](C=O)NC(=O)[C@H](CC(C)C)NC(=O)OCc1ccc(Cl)cc1` [Example 6, N-(p-chlorobenzyloxycarbonyl)-L-leucyl-L-norleucinal], the IC50 on calpain I (setting [1]) was 87 nM; on cathepsin B (setting [2]), 70 nM; at calpain II (setting [3]), 130 nM; on papain (setting [4]), 58 nM.
As for `CCCC[C@@H](C=O)NC(=O)[C@H](CC(C)C)NC(=O)OCc1ccccc1Cl` [Example 9, N-(o-chlorobenzyloxycarbonyl)-L-leucyl-L-norleucinal], the 50% inhibitory concentration (IC50) was 110 nM on calpain I (setting [1]), 140 nM on cathepsin B (setting [2]), 130 nM at calpain II (setting [3]) and 160 nM at papain (setting [4]).
As for `CCCC[C@@H](C=O)NC(=O)[C@H](CC(C)C)NC(=O)OCc1ccc([N+](=O)[O-])cc1` [Example 8, N-(p-nitrobenzyloxycarbonyl)-L-leucyl-L-norleucinal], the half-inhibitory concentration (IC50) came to 92 nM at calpain I (setting [1]), 99 nM at cathepsin B (setting [2]), 130 nM on calpain II (setting [3]) and 31 nM at papain (setting [4]).
On to `CCCC[C@@H](C=O)NC(=O)[C@H](CC(C)C)NP(=S)(c1ccccc1)c1ccccc1` [Example 14, N-diphenylphosphonothioyl-L-leucyl-L-norleucinal], for which the IC50 against calpain I came to 90 nM; against cathepsin B, 79 nM; against calpain II, 120 nM; on papain it was 170 nM.
For `CCCC[C@@H](C=O)NC(=O)[C@H](CC(C)C)NC(=O)CC(C)C` [Example 3, N-isovaleryl-L-leucyl-L-norleucinal], the IC50 at calpain I (setting [1]) was 100 nM; at cathepsin B (setting [2]), 510 nM; on calpain II (setting [3]) it was 130 nM; on papain (setting [4]), 120 nM.
